# What was measured:
# Format in all cases: in vivo, Sprague-Dawley rats
# SOD = SOD protein expression, Western blot of corporal tissue; details: DM group treated with C3G
# Description: (§1) Thirty-six 12-wk-old male Sprague-Dawley rats were treated under a protocol approved by the Institutional Animal Care and Use Committee (CUMC-2010-0137-02) and handled according to NIH guidelines. Rats were divided equally into three groups (n=12 in each): control, diabetes (DM), and diabetes with C3G concentration materials treatment (DM+C3G). All rats in the DM and DM+C3G groups received a single intraperitoneal injection of streptozotosin (50 mg/kg). Blood glucose and body weight were monitored weekly and significant diabetes (serum glucose >250 mg/dl) was confirmed in all rats within 1 wk. The diabetic serum level was maintained throughout the experiment. Four weeks after the induction of diabetes, rats in the DM+C3G group were treated with daily oral C3G (10 mg/kg) dissolved in water for 8 weeks. […]
# (§2) The homogenized buffer solution was placed on ice for 15 min and centrifuged at 4° C. for 13,000 rpm for 15 minutes. […] 30 μg of the quantitative protein was denatured at 95° C. for 5 min and electrophoresis was performed on a 12% discontinuous sodium dodecylsulfate-polyacrylamide gel (SDS-PAGE). […] Chemiluminescence was detected using enhanced chemiluminescence Western blotting detection reagents and densitometric assessment of the bands on the autoradiogram was performed using Bio1D software (version 97; Vilber Lourmat, France).
# eNOS = eNOS protein expression, Western blot of corporal tissue; details: C3G treatment group versus DM group, corrected against actin
# Description: as §1
# as §2, with “France). […]” for “France).”
# [1] = test system: apoptosis in corporal tissue; assay: TUNEL assay for apoptosis; details: diabetic rats, daily oral C3G 10 mg/kg for 8 weeks; DM 39.6±4.6, control 15.3±3.0
# Description: as §1
# To assess apoptosis in the corpora tissues, the terminal deoxynucleotidyl transferase mediated dUTP nick end labeling (TUNEL) assay was performed using Apop Tag In Situ Apoptosis Detection Kits (Millipore Co., MA, US). […] The number of cells positive for the TUNEL assay was counted and the difference among the groups was assessed. For the count of cells positive for the TUNEL assay, 5 sites were selected randomly from a slide of each group, and the number of cells positive for the TUNEL assay was counted as the average of 5 sites under a light microscope at 400× magnification.
# nNOS = nNOS protein expression, Western blot of corporal tissue; details: C3G treatment group versus DM group, corrected against actin
# Description: as §1
# as §2, with “France). […]” for “France).”
# [2] = test system: smooth muscle and collagen in corporal tissue; assay: Masson's trichrome staining of cavernosal tissue
# Description: (§3) Thirty-six 12-wk-old male Sprague-Dawley rats were treated under a protocol approved by the Institutional Animal Care and Use Committee (CUMC-2010-0137-02) and handled according to NIH guidelines. Rats were divided equally into three groups (n=12 in each): control, diabetes (DM), and diabetes with C3G concentration materials treatment (DM+C3G). All rats in the DM and DM+C3G groups received a single intraperitoneal injection of streptozotosin (50 mg/kg). Blood glucose and body weight were monitored weekly and significant diabetes (serum glucose >250 mg/dl) was confirmed in all rats within 1 wk. The diabetic serum level was maintained throughout the experiment. Four weeks after the induction of diabetes, rats in the DM+C3G group were treated with daily oral C3G (10 mg/kg) dissolved in water for 8 weeks. After the 12 weeks, intracavernosal pressure measurement (ICP) was performed, and after ICP measurement, the skin-denuded middle part of the penile shafts was cut and fixed overnight in 10% formalin, washed, and stored in 70% alcohol at 4° C. until processed for paraffin-embedded tissue sectioning (5 μm). […].
# After ICP, the skin denuded middle part of the penile shafts were fixed overnight in 10% formalin, washed, and stored in 70% alcohol at 4° C. until processed for paraffin-embedded tissue sectioning (5 μm). The cavernosal tissue was obtained for the Masson's trichrome staining. After staining, the color distribution of the muscle tissue was approximated by using the Adobe Photoshop CS 8.0. After the entire color distribution of the image was calculated, we selected the muscle tissue distribution, expressed as the color red. There were somewhat standard deviations in our calculation because of color overlays and ambiguity of the color spectrum of the muscle tissues.
# [3] = test system: 8-OHdG in corpora tissues; assay: Measurement of 8-OHdG (oxidative stress) by ELISA; details: diabetic rats, daily oral C3G 10 mg/kg for 8 weeks; DM 0.917±0.247, normal 0.140±0.13
# Description: as §1
# Oxidative stress in corpora tissues was evaluated by quantifying the levels of 8-hydroxy-2-deoxyguanosine (8-OHdG) as oxidatively modified DNA. […] Levels of 8-OHdG were measured with a DNA oxidation kit (Highly Sensitive 8-OHdG Check ELISA; Japan Institute for the Control of Aging, Fukuroi, Japan) according to the manufacturer's protocol. […] After the final color was developed with the addition of 3,3′,5,5′-tetramethylbenzidine, absorbance was measured at 450 nm. Tissue sample concentration was calculated from a standard curve and was corrected for DNA concentration.
# [4] = test system: rat model of diabetic erectile dysfunction; assay: Intracavernosal pressure measurement on electrical stimulation of the cavernosal nerve; details: diabetic rats, daily oral C3G 10 mg/kg for 8 weeks
# Description: as §3
# Rats were anaesthetized with an intraperitoneal injection of 0.2 mL tiletamine (Zoletil®). […] Both mean arterial pressure (MAP) and ICP were continuously monitored during electrical stimulation. […]
# [5] = Serum glucose of streptozotosin-induced diabetic rats; details: DM+C3G group
# Description: as §3
# [6] = C3G treatment group versus DM group
compound,measurement,setting,value
"OC[C@H]1O[C@@H](Oc2cc3c(O)cc(O)cc3[o+]c2-c2ccc(O)c(O)c2)[C@H](O)[C@@H](O)[C@@H]1O [C3G, Cyanidin-3-O-β-d-glucopyranoside]",SOD expression (western blot),SOD,expressed more in the DM group treated with C3G than in the control group
same,"eNOS protein level (western blot, densitogram)",eNOS,levels increased
same,mean apoptotic index ± standard deviation (TUNEL),[1],21.3±1.7
same,"nNOS protein level (western blot, densitogram)",nNOS,levels increased
same,collagen content of corpora tissues,[2]; [6],collagen content decreased
same,smooth muscle content of corpora tissues,[2]; [6],smooth muscle content increased
same,muscle/collagen ratio,"[2]; diabetic rats, daily oral C3G 10 mg/kg for 8 weeks, DM 10.6±4.6, control 27.3±3.0",21.8±1.7
same,8-OHdG in the corpora tissue by ELISA,[3],0.626±0.423
same,ICP/MAP ratio,"[4]; DM group 0.32 ± 0.06, control 0.77 ± 0.05",0.55 ± 0.11
same,Peak ICP,"[4]; cavernosal nerve stimulation, DM group 35.4 ± 4.5, control 83.3 ± 1.9",58.0 ± 4.6
same,Serum glucose,[5]; 4 wk after diabetes induction (start of daily oral C3G 10 mg/kg),462 ± 90 mg/dL
same,Serum glucose,"[5]; 8 wk, daily oral C3G 10 mg/kg from week 4",448 ± 143 mg/dL
same,Serum glucose,"[5]; 12 wk, daily oral C3G 10 mg/kg for 8 weeks",469 ± 163 mg/dL
same,Serum glucose,[5]; Pre-DM induction (before C3G treatment),141 ± 13 mg/dL

# Reference: patent US9040106B2, “Pharmaceutical composition for preventing or treating diabetic erectile dysfunction comprising C3G or extract of mulberry containing C3G” (CATHOLIC UNIVERSITY INDUSTRY-ACADEMIC COOPERATION FOUNDATION, priority 2011, dated 2015)
